How the values were obtained:
[1] = biological target: NAMPT (human, recombinant, C-terminally His-tagged) (Homo sapiens, UniProt P43490); assay: Time-Resolved Fluorescence Resonance Energy Transfer (TR-FRET) Binding Assay of NAMPT; conditions: without substrates; 6.8 nM NAMPT, 200 nM probe, 3 hours equilibration
Procedure, shortened: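 A TR-FRET probe-displacement assay used 6.8 nM His-tagged recombinant human NAMPT, 200 nM Oregon Green 488-labelled nicotinamide-competitive probe and 1 nM Tb-anti-His antibody. Buffer was HEPES pH 7.5 with NaCl, MgCl2, DTT and glycerol, plus 2% DMSO, equilibrated 3 h at room temperature. Em520/Em495 ratios, normalized to controls, gave IC50 by four-parameter logistic fit.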

NAMPT = NAMPT (Homo sapiens, UniProt P43490); assay: TR-FRET Binding Assay of NAMPT with PRPP; conditions: with 200 μM PRPP and 2.5 mM ATP; 2 nM NAMPT, 2 nM probe, 16 hours equilibration
Procedure, shortened: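 Human NAMPT (2 nM) with 2 nM probe and 1 nM Tb-anti-His antibody, plus 200 μM PRPP and 2.5 mM ATP, 2% DMSO. TR-FRET read after 16 h equilibration, permitting possible enzymatic modification of test compounds; data processing as for the substrate-free format.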

PC3 cells = assay: NAMPT Cell Proliferation Assay; type: cell-based; conditions: Homo sapiens, PC-3, 120 h, 5 days incubation, cell viability by Cell Titer Glo
Procedure, shortened: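 Cell Titer Glo viability after 5-day exposure (37° C, 5% CO2); PC3, 500 cells/well, RPMI + 10% heat-inactivated FBS, overnight attachment before dosing. Dose range 10 μM to 1×10^−5 μM, 10-fold steps. IC50 = sigmoidal fit of % inhibition.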

NAMPT, sequence (P43490 whole entry): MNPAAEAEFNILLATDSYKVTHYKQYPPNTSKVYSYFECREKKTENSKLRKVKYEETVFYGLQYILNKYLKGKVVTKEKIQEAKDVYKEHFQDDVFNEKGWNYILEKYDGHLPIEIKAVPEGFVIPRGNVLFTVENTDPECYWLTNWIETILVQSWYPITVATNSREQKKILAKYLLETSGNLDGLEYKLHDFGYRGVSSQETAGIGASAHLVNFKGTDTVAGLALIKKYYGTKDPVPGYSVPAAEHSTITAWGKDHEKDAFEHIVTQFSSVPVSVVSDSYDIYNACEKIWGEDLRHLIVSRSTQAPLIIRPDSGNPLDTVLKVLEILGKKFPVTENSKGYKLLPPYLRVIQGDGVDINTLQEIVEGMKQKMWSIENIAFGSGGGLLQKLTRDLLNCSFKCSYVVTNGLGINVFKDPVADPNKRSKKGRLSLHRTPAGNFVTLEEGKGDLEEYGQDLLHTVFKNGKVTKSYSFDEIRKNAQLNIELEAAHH
NAMPT (human, recombinant, C-terminally His-tagged), sequence (P43490 whole entry): as above

Compound	IC50 [1]	IC50 (NAMPT)	IC50 (PC3 cells)
CC(C)(C)OC(=O)N1CCC(c2ccc(C(=O)Nc3ccc4nccn4c3)cc2)CC1 [Example 323, tert-butyl 4-[4-(imidazo[1,2-a]pyridin-6-ylcarbamoyl)phenyl]piperidine-1-carboxylate]	1400 nM	0.232 nM	175 nM
CC(C)C(=O)NC1(c2ccc(C(=O)NCc3ccn4ccnc4c3)s2)COC1 [Example 324, N-(imidazo[1,2-a]pyridin-7-ylmethyl)-5-{3-[(2-methylpropanoyl)amino]oxetan-3-yl}thiophene-2-carboxamide]	981 nM	0.752 nM	54.7 nM
O=C(NC1(c2ccc(C(=O)NCc3ccn4ccnc4c3)s2)COC1)c1ccccc1 [Example 325, 5-[3-(benzoylamino)oxetan-3-yl]-N-(imidazo[1,2-a]pyridin-7-ylmethyl)thiophene-2-carboxamide]	180 nM	0.278 nM	32.9 nM
O=C(CC1CCOC1)NC1(c2ccc(C(=O)NCc3ccn4ccnc4c3)s2)COC1 (stereo not drawn) [Example 326, N-(imidazo[1,2-a]pyridin-7-ylmethyl)-5-{3-[(tetrahydrofuran-3-ylacetyl)amino]oxetan-3-yl}thiophene-2-carboxamide]	2350 nM	1.3 nM	457 nM
CCCCC(=O)NC1(c2ccc(C(=O)NCc3ccn4ccnc4c3)s2)COC1 [Example 327, N-(imidazo[1,2-a]pyridin-7-ylmethyl)-5-[3-(pentanoylamino)oxetan-3-yl]thiophene-2-carboxamide]	1320 nM	0.558 nM	638 nM
CC[C@H](C)C(=O)N1CC[C@H](Oc2ccc(NC(=O)NCc3ccn4ccnc4c3)cc2)C1 [Example 328, 1-(imidazo[1,2-a]pyridin-7-ylmethyl)-3-[4-({(3S)-1-[(2S)-2-methylbutanoyl]pyrrolidin-3-yl]oxy)phenyl}urea]	68 nM	0.169 nM	8.9 nM
O=C(NCc1ccn2ccnc2c1)Nc1ccc(O[C@@H]2CCN(C(=O)c3ccccc3)C2)cc1 [Example 329, 1-(4-{[(3R)-1-benzoylpyrrolidin-3-yl]oxy}phenyl)-3-(imidazo[1,2-a]pyridin-7-ylmethyl)urea]	30.8 nM	0.169 nM	12.4 nM
CC(C)C(=O)N1CC[C@@H](Oc2ccc(NC(=O)NCc3ccn4ccnc4c3)cc2)C1 [Example 330, 1-(imidazo[1,2-a]pyridin-7-ylmethyl)-3-(4-{[(3R)-1-(2-methylpropanoyl)pyrrolidin-3-yl]oxy}phenyl)urea]	320 nM	0.432 nM	22.9 nM
O=C(NCc1ccn2ccnc2c1)Nc1ccc(O[C@@H]2CCN(C(=O)C3CC3)C2)cc1 [Example 331, 1-(4-{[(3R)-1-(cyclopropylcarbonyl)pyrrolidin-3-yl]oxy}phenyl)-3-(imidazo[1,2-a]pyridin-7-ylmethyl)urea]	383 nM	0.416 nM	227 nM
O=C(NCc1ccn2ccnc2c1)Nc1ccc(O[C@@H]2CCN(C(=O)CC3CC3)C2)cc1 [Example 332, 1-(4-{[(3R)-1-(cyclopropylacetyl)pyrrolidin-3-yl]oxy}phenyl)-3-(imidazo[1,2-a]pyridin-7-ylmethyl)urea]	180 nM	0.297 nM	64.3 nM
O=C(NCc1ccn2ccnc2c1)Nc1ccc(O[C@@H]2CCN(C(=O)C3CCOCC3)C2)cc1 [Example 333, 1-(imidazo[1,2-a]pyridin-7-ylmethyl)-3-(4-{[(3R)-1-(tetrahydro-2H-pyran-4-ylcarbonyl)pyrrolidin-3-yl]oxy}phenyl)urea]	583 nM	0.346 nM	116 nM
CC(C)(O)C(=O)N1CC[C@@H](Oc2ccc(NC(=O)NCc3ccn4ccnc4c3)cc2)C1 [Example 334, 1-(4-{[(3R)-1-(2-hydroxy-2-methylpropanoyl)pyrrolidin-3-yl]oxy}phenyl)-3-(imidazo[1,2-a]pyridin-7-ylmethyl)urea]	80.9 nM	0.345 nM	21.9 nM
O=C(NCc1ccn2ccnc2c1)Nc1ccc(O[C@@H]2CCN(C(=O)[C@H]3CCCO3)C2)cc1 [Example 335, 1-(imidazo[1,2-a]pyridin-7-ylmethyl)-3-[4-({(3R)-1-[(2R)-tetrahydrofuran-2-ylcarbonyl]pyrrolidin-3-yl}oxy)phenyl]urea]	632 nM	0.354 nM	97.6 nM
O=C(NCc1ccn2ccnc2c1)Nc1ccc(O[C@@H]2CCN(C(=O)[C@@H]3CCCO3)C2)cc1 [Example 336, 1-(imidazo[1,2-a]pyridin-7-ylmethyl)-3-[4-({(3R)-1-[(2S)-tetrahydrofuran-2-ylcarbonyl]pyrrolidin-3-yl}oxy)phenyl]urea]	334 nM	0.264 nM	139 nM
O=C(NCc1ccn2ccnc2c1)Nc1ccc(O[C@@H]2CCN(C(=O)C3CCOC3)C2)cc1 (stereo partly drawn) [Example 337, 1-(imidazo[1,2-a]pyridin-7-ylmethyl)-3-(4-{[(3R)-1-(tetrahydrofuran-3-ylcarbonyl)pyrrolidin-3-yl]oxy}phenyl)urea]	497 nM	0.205 nM	533 nM
O=C(NCc1ccn2ccnc2c1)Nc1ccc(O[C@@H]2CCN(C(=O)CC3CCOCC3)C2)cc1 [Example 338, 1-(imidazo[1,2-a]pyridin-7-ylmethyl)-3-(4-{[(3R)-1-(tetrahydro-2H-pyran-4-ylacetyl)pyrrolidin-3-yl]oxy}phenyl)urea]	609 nM	0.394 nM	81 nM
O=C(NCc1ccn2ccnc2c1)c1ccc(O[C@H]2CCN(C(=O)[C@@H]3CCOC3)C2)cc1 [Example 339, N-(imidazo[1,2-a]pyridin-7-ylmethyl)-4-({(3S)-1-[(3R)-tetrahydrofuran-3-ylcarbonyl]pyrrolidin-3-yl}oxy)benzamide]	> 10000 nM	0.797 nM	9180 nM
O=C(NCc1ccn2ccnc2c1)c1ccc(O[C@H]2CCN(C(=O)[C@H]3CCCO3)C2)cc1 [Example 340, N-(imidazo[1,2-a]pyridin-7-ylmethyl)-4-({(3S)-1-[(2R)-tetrahydrofuran-2-ylcarbonyl]pyrrolidin-3-yl}oxy)benzamide]	> 10000 nM	0.817 nM	> 10000 nM
O=C(NCc1ccn2ccnc2c1)c1ccc(O[C@H]2CCN(C(=O)[C@@H]3CCCO3)C2)cc1 [Example 341, N-(imidazo[1,2-a]pyridin-7-ylmethyl)-4-({(3S)-1-[(2S)-tetrahydrofuran-2-ylcarbonyl]pyrrolidin-3-yl}oxy)benzamide]	> 10000 nM	0.719 nM	8300 nM
O=C(NCc1ccn2ccnc2c1)c1ccc(O[C@H]2CCN(C(=O)C3CCOCC3)C2)cc1 [Example 342, N-(imidazo[1,2-a]pyridin-7-ylmethyl)-4-{[(3S)-1-(tetrahydro-2H-pyran-4-ylcarbonyl)pyrrolidin-3-yl]oxy}benzamide]	> 10000 nM	0.454 nM	6730 nM
O=C(NCc1ccn2ccnc2c1)c1ccc(O[C@H]2CCN(C(=O)CC3CCOCC3)C2)cc1 [Example 343, N-(imidazo[1,2-a]pyridin-7-ylmethyl)-4-{[(3S)-1-(tetrahydro-2H-pyran-4-ylacetyl)pyrrolidin-3-yl]oxy}benzamide]	> 10000 nM	0.456 nM	6530 nM
O=C(NCc1ccn2ccnc2c1)c1ccc(-c2cnn(CC3CCCS(=O)(=O)C3)c2)s1 (stereo not drawn) [Example 344, 5-{1-[(1,1-dioxidotetrahydro-2H-thiopyran-3-yl)methyl]-1H-pyrazol-4-yl}-N-(imidazo[1,2-a]pyridin-7-ylmethyl)thiophene-2-carboxamide]	36 nM	0.169 nM	7.46 nM
Cn1cc(-c2ccc(C(=O)NCc3ccn4ccnc4c3)s2)cn1 [Example 345, N-(imidazo[1,2-a]pyridin-7-ylmethyl)-5-(1-methyl-1H-pyrazol-4-yl)thiophene-2-carboxamide]	201 nM	0.27 nM	281 nM
O=C(NCc1ccn2ccnc2c1)c1ccc(O[C@H]2CCN(C(=O)[C@H]3CCOC3)C2)cc1 [Example 346, N-(imidazo[1,2-a]pyridin-7-ylmethyl)-4-({(3S)-1-[(3S)-tetrahydrofuran-3-ylcarbonyl]pyrrolidin-3-yl}oxy)benzamide]	3110 nM	0.548 nM	7020 nM
O=C(NCc1ccn2ccnc2c1)c1ccc(O[C@H]2CCN(C(=O)CC3CC3)C2)cc1 [Example 347, 4-{[(3S)-1-(cyclopropylacetyl)pyrrolidin-3-yl]oxy}-N-(imidazo[1,2-a]pyridin-7-ylmethyl)benzamide]	4730 nM	0.667 nM	8080 nM
CC(C)(O)C(=O)N1CC[C@H](Oc2ccc(C(=O)NCc3ccn4ccnc4c3)cc2)C1 [Example 348, 4-{[(3S)-1-(2-hydroxy-2-methylpropanoyl)pyrrolidin-3-yl]oxy}-N-(imidazo[1,2-a]pyridin-7-ylmethyl)benzamide]	> 10000 nM	1.52 nM	> 10000 nM

Reference: patent US9187472B2 (AbbVie Inc., priority 2012, dated 2015)
